Experiment [1] has as its system KRAS G12D mutant AGS cells. Kind of experiment: Proliferation inhibition of AGS cells, CellTiter-Glo assay. The conditions noted are these: 3 days, CTG, read-out: AGS IC50/nM. The format is cell-based, human. Here is the method: AGS cells (Nanjing Kebai Biotechnology Co., Ltd., catalog number CBP60476, adherent, culture medium (F12K Nutrient Mixture+10% FBS (GIBCO, Cat#10091-148) were cultured at 37°C, 5% CO2, and 95% humidity at a density of 1500 cells/well. Cells in the logarithmic growth phase were harvested and counted using a Countstar automated cell counter based on the classic trypan blue staining method to ensure cell viability was above 90%. The cell concentration was adjusted, and 80 µL of cell suspension was added to each 96-well clear flat-bottomed, black-walled plate (Greiner, Cat# 655090). The cells in the 96-well plates were then cultured at 37°C and 5% CO2.
Drug preparation for IC50 assay: A 5-fold drug solution was prepared using culture medium. 20 µL of the drug solution was added to each well of a 96-well plate seeded with cells to achieve a working concentration of up to 10 µM, with a 3 × dilution, and a total of 9 concentrations. 2 replicate wells for each drug concentration were set. The cells in the drug-treated 96-well plates were cultured at 37°C and 5% CO2 for additional 3 days and then CTG assay were performed.
The cell plate was equilibrated to room temperature for 30 minutes and the CTG reagent (CellTiter-Glo® Luminescent Cell Viability Assay (Promega, Cat# G7573)) was thawed. 50 µL of CTG solution was added to each well and the plate was shaken on an orbital shaker for 2 minutes to lyse the cells. The cell plate was placed at room temperature for 10 minutes to stabilize the cryo-luminescence signal and the cryo-luminescence value was read (EnVision® Multifunctional microplate reader, PerkinElmer #2105).
(§1) Data was analyzed using GraphPad Prism software. The dose-response-inhibition equation was used to fit the data to obtain the dose-response curve, and the IC50 value (nM) was calculated accordingly. [formula]

For experiment [2], the system named is KRAS G12V mutant NCI-H727 cells. Description: Proliferation inhibition of NCI-H727 cells, 3D CellTiter-Glo assay (Method B). The format is cell-based, human. The conditions noted are these: Method B, 3D culture with 0.65% methylcellulose, 5 days, CTG, read-out: NCI-H727 IC50/nM. The procedure:
NCI-H727 cells (Nanjing Kebai Biotechnology Co., Ltd., catalog number CBP60182, adherent, culture medium RPMI-1640+10%FBS (GIBCO, Cat#10091-148)) were cultured at 37°C, 5% CO2, and 95% humidity.
3D cell viability assay: Cells in the logarithmic growth phase were harvested and counted using a platelet counter. Cell viability was assessed using the trypan blue exclusion method to ensure a viability of over 90%. The 3D cell culture medium was prepared by adding 1% MC (methylcellulose, Sigma, Cat#M0512) to RPMI-1640 medium and 10% FBS. The cell concentration was adjusted to approximately 25,000 cells/mL using the 3D medium, and the methylcellulose (MC) content was set to 0.65%. Then, 80 µL of cell suspension was added to each 96-well clear, flat-bottomed, black-walled plate (Greiner, Cat# 655096). The cells in the 96-well plates were cultured overnight at 37°C and 5% CO2.
Drug preparation for IC50 assay: A 5-fold drug solution was prepared using culture medium. 20 µL of the drug solution was added to each well of a 96-well plate seeded with cells to achieve a working concentration of up to 10 µM, with a 3× dilution, and 9 concentrations. 2 replicate wells for each drug concentration were set. The cells in the drug-treated 96-well plates were cultured at 37°C and 5% CO2 for additional 5 days, then CTG assay (CellTiter-Glo® Luminescent Cell Viability Assay (Promega, Cat#G7573)) were performed.
The cell plate was equilibrated to room temperature for 30 minutes and the CTG reagent was thawed. 50 µL of CTG solution was added to each well for detection and the plate was shaken on an orbital shaker for 5 minutes to lyse the cells. The cell plate was then placed at room temperature for 25 minutes to stabilize the cryo-luminescence signal, and the cryo-luminescence value was read (EnVision® multi-plate reader, PerkinElmer#2105).
as §1
On the technique in general: ATP-based viability assays read luminescence as a measure of living cells.

The structures appear in SMILES notation. Like-named read-outs stand apart in the source and are kept apart here.

`CN1CC[C@H](C(F)F)[C@](C)(COc2nc(N3CCOC[C@@](C)(O)C3)c3cc([N+](=O)[O-])c(-c4cccc5sc(N)c(C#N)c45)c(F)c3n2)C1` (atropisomer, axis not shown; (Ra)) [Example 86A]: the IC50 in experiment [1] was 4.9 nM; in experiment [2], 1.9 nM.

On to `CN1CC/C(=C\F)[C@](C)(COc2nc(N3CCCn4nc(C(=O)N(C)C)cc4C3)c3cc(Cl)c(-c4c(F)ccc5sc(N)c(C#N)c45)c(F)c3n2)C1` (atropisomer, axis not shown; (Sa)) [Example 93B, (Sa)-5-(7-(2-amino-3-cyano-5-fluorobenzo[b]thiophene-4-yl)-6-chloro-8-fluoro-2-(((S,E)-4-(fluoromethylene)-1,3-dimethylpiperidine-3-yl)methoxy)quinazoline-4-yl)-N,N-dimethyl-5,6,7,8-tetrahydro-4H-pyrazolo[1,5-a][1,4]diazepine-2-formamide·formate], for which the IC50 turned out to be 178 nM in experiment [1] and 191 nM in experiment [2].

In the case of `CN1CC/C(=C\F)[C@](C)(COc2nc(N3CCCn4nc(C(=O)N(C)C)cc4C3)c3cc(Cl)c(-c4cccc5sc(N)c(C#N)c45)c(F)c3n2)C1` (atropisomer, axis not shown; (Sa)) [Example 94A, (Sa)-5-(7-(2-amino-3-cyanobenzo[b]thiophene-4-yl)-6-chloro-8-fluoro-2-(((S,E)-4-(fluoromethylene)-1,3-dimethylpiperidine-3-yl)methoxy)quinazoline-4-yl)-N,N-dimethyl-5,6,7,8-tetrahydro-4H-pyrazolo[1,5-a][1,4]diazepine-2-formamide·formate], the IC50 in experiment [1] (Homo sapiens, AGS, 72 h) was found to be 3.3 nM; in experiment [2] (Homo sapiens, NCI-H727, 120 h) it was 9 nM.

As to `CN1CC/C(=C\F)[C@](C)(COc2nc(N3CCCn4nc(C(=O)N(C)C)cc4C3)c3cc(/C=C\F)c(-c4cccc5sc(N)c(C#N)c45)c(F)c3n2)C1` (single isomer, unassigned) [Example 112B], the IC50 in experiment [1] (Homo sapiens, AGS, 72 h) is 5.3 nM; in experiment [2] (Homo sapiens, NCI-H727, 120 h), 11 nM.

For `CN1CC/C(=C\F)[C@](C)(COc2nc(N3CCCn4nc(C(=O)N(C)C)c(C#N)c4C3)c3cc(C(F)(F)F)c(-c4cccc5sc(N)c(C#N)c45)c(F)c3n2)C1` (single isomer, unassigned) [Example 119B], the IC50 in experiment [1] (Homo sapiens, AGS, 72 h) was below 1.5 nM; in experiment [2] (Homo sapiens, NCI-H727, 120 h), 6.9 nM.

For the molecule `CN1CC/C(=C\F)[C@](C)(COc2nc(N3CCCn4nc(C(=O)N(C)C)c(Cl)c4C3)c3cc(C4CC4)c(-c4c(F)ccc5sc(N)c(C#N)c45)c(F)c3n2)C1` (single isomer, unassigned) [Example 161A], the IC50 is 2.4 nM in experiment [1] and 4.3 nM in experiment [2] (Homo sapiens, NCI-H727, 120 h).

Take `CCc1cc2c(N3Cc4cc(C(=O)N(C)C)nn4CC[C@@H]3C)nc(OC[C@]3(C)CN(C)CC/C3=C\F)nc2c(F)c1-c1c(C)ccc2[nH]ncc12` (single isomer, unassigned) [Example 172A]: the IC50 in experiment [1] (Homo sapiens, AGS, 72 h) was 199 nM; in experiment [2] (Homo sapiens, NCI-H727, 120 h), 419 nM.

Consider `[2H]C([2H])([2H])N1CC/C(=C\F)[C@](C)(COc2nc(N3Cc4c(Cl)c(C(=O)N(C)C)nn4CC[C@@H]3C)c3cc(CC)c(-c4c(F)ccc5sc(N)c(C#N)c45)c(F)c3n2)C1` (single isomer, unassigned) [Example 182A], for which the IC50 was 2 nM in experiment [1] (Homo sapiens, AGS, 72 h) and below 1.5 nM in experiment [2] (Homo sapiens, NCI-H727, 120 h).

Consider `[2H]C([2H])([2H])N1CC/C(=C\F)[C@](C)(COc2nc(N3Cc4c(C)c(C(=O)N(C)C)nn4CC[C@@H]3C)c3cc(CC)c(-c4c(F)ccc5sc(N)c(C#N)c45)c(F)c3n2)C1` (single isomer, unassigned) [Example 183A], for which the IC50 in experiment [1] (Homo sapiens, AGS, 72 h) is below 1.5 nM; in experiment [2] (Homo sapiens, NCI-H727, 120 h) it was below 1.5 nM.

Regarding `[2H]C([2H])([2H])N1CC/C(=C\F)[C@](C)(COc2nc(N3Cc4c(C#C)c(C(=O)N(C)C)nn4CC[C@@H]3C)c3cc(CC)c(-c4c(F)ccc5sc(N)c(C#N)c45)c(F)c3n2)C1` (single isomer, unassigned) [Example 184A], the IC50 in experiment [1] (Homo sapiens, AGS, 72 h) turned out to be 3.4 nM; in experiment [2] (Homo sapiens, NCI-H727, 120 h), 4.3 nM.

As to `[2H]C([2H])([2H])N1CCC(=CF)C(C)(COc2nc(N3Cc4cc(C(=O)N(C([2H])([2H])[2H])C([2H])([2H])[2H])nn4CCC3C)c3cc(CC)c(-c4c(F)ccc5sc(N)c(C#N)c45)c(F)c3n2)C1` (single isomer, unassigned) [Example 185A], the IC50 in experiment [1] (Homo sapiens, AGS, 72 h) was below 1.5 nM; in experiment [2] (Homo sapiens, NCI-H727, 120 h), below 1.5 nM.

In the case of `Cc1cc(N)nc(-c2c(Cl)cc3c(N4Cc5cc(C(=O)N(C)C)nn5CCC4C)nc(OCC4(C)CN(C)CCC4=CF)nc3c2F)c1C(F)(F)F` (single isomer, unassigned) [Example 213A], the IC50 is 49.6 nM in experiment [1] (Homo sapiens, AGS, 72 h) and 43.1 nM in experiment [2] (Homo sapiens, NCI-H727, 120 h).

With `COCc1cc2c(N3Cc4cc(C(=O)N(C)C)nn4CC[C@@H]3C)nc(OC[C@]3(C)CN(C)CC/C3=C\F)nc2c(F)c1-c1c(F)ccc2sc(N)c(C#N)c12` (single isomer, unassigned) [Example 226A], the IC50 stood at 19.7 nM in experiment [1] (Homo sapiens, AGS, 72 h) and 39.8 nM in experiment [2] (Homo sapiens, NCI-H727, 120 h).

Regarding `CCN1CC/C(=C\F)[C@](C)(COc2nc(N3Cc4c(COC)c(C(=O)N(C)C)nn4CC[C@@H]3C)c3cc(C(F)(F)F)c(-c4ncc(F)c5sc(N)c(C#N)c45)c(F)c3n2)C1` (single isomer, unassigned) [Example 230A], the IC50 was 1.7 nM in experiment [1] (Homo sapiens, AGS, 72 h) and 2.2 nM in experiment [2] (Homo sapiens, NCI-H727, 120 h).

Consider `CCN1CC/C(=C\F)[C@](C)(COc2nc(N3Cc4cc(C(=O)N(C)C)nn4CC[C@@H]3C)c3cc(Cl)c(-c4ncc(F)c5sc(N)c(C#N)c45)c(F)c3n2)C1` (single isomer, unassigned) [Example 231A], for which the IC50 in experiment [1] (Homo sapiens, AGS, 72 h) is 2.5 nM; in experiment [2] (Homo sapiens, NCI-H727, 120 h), 4.4 nM.

On to `CCN1CC/C(=C\F)[C@](C)(COc2nc(N3Cc4c(OC)c(C(=O)N(C)C)nn4CC[C@@H]3C)c3cc(Cl)c(-c4c(F)ccc5sc(N)c(C#N)c45)c(F)c3n2)C1` (single isomer, unassigned) [Example 234A], for which the IC50 in experiment [1] (Homo sapiens, AGS, 72 h) is below 1.5 nM; in experiment [2] (Homo sapiens, NCI-H727, 120 h), below 1.5 nM.

On to `CCN1CC/C(=C\F)[C@](C)(COc2nc(N3Cc4c(COC)c(C(=O)N(C)C)nn4CC[C@@H]3C)c3cc(Cl)c(-c4ncc(F)c5sc(N)c(C#N)c45)c(C)c3n2)C1` (single isomer, unassigned) [Example 238A], for which the IC50 in experiment [1] (Homo sapiens, AGS, 72 h) amounted to 11.5 nM; in experiment [2] (Homo sapiens, NCI-H727, 120 h), 6.5 nM.

For the molecule `CCN1CC/C(=C\F)[C@](C)(COc2nc(N3Cc4cc(C(=O)N(C)C)nn4CC[C@@H]3C)c3cc(Cl)c(-c4c(F)ccc5sc(N)c(C#N)c45)c(C(F)F)c3n2)C1` (single isomer, unassigned) [Example 242A], the IC50 in experiment [1] (Homo sapiens, AGS, 72 h) came to 5.4 nM; in experiment [2] (Homo sapiens, NCI-H727, 120 h) it was 6.3 nM.

In the case of `CCN1CC/C(=C\F)[C@](C)(COc2nc(N3Cc4cc(C(=O)N(C)C)nn4CC[C@@H]3C)c3cc(C(F)(F)F)c(-c4c(F)ccc5sc(N)c(C#N)c45)c(F)c3n2)C1` (single isomer, unassigned) [Example 248A], the IC50 in experiment [1] (Homo sapiens, AGS, 72 h) is below 1.5 nM; in experiment [2] (Homo sapiens, NCI-H727, 120 h) it was below 1.5 nM.

`CN1CC/C(=C\F)[C@](C)(COc2nc(N3CC[C@@H](C#N)[C@H](O)C3)c3cc(C(F)(F)F)c(-c4c(F)ccc5sc(N)c(C#N)c45)c(F)c3n2)C1` (single isomer, unassigned) [Example 252]: the IC50 in experiment [1] (Homo sapiens, AGS, 72 h) amounted to 41.5 nM; in experiment [2] (Homo sapiens, NCI-H727, 120 h) it was 2.1 nM.

The record behind these values is EP4775577A1, “RAS INHIBITOR” (Tyligand Bioscience (Shanghai) Limited, priority 2023, dated 2025).
